# According to ChEMBL document CHEMBL1201862, “PubChem BioAssay data set” (2004):
#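 Values below derive from 48-hour exposures of cells grown in 96-well plates, with endpoints linearly interpolated between the two concentrations bracketing the appropriate inhibition level. GI50: concentration for 50% inhibition of growth.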 Calls of active or inactive are those of the source. Rule as the data show it: active = GI50 up to about 1.1 µM and inactive = higher.
# Experiments:
# Experiment in all cases: NCI tumour cell line growth inhibition, 48 h
# SK-OV-3 = tested on: SK-OV-3
# A498 = tested on: A498
# 786-0 = tested on: 786-0
# M14 = tested on: M14
# SK-MEL-5 = tested on: SK-MEL-5
# UACC-62 = tested on: UACC-62
# OVCAR-8 = tested on: OVCAR-8
# MDA-MB-231 = tested on: MDA-MB-231
# T47D = tested on: T47D
# MOLT-4 = tested on: MOLT-4
# MCF7 = tested on: MCF7
# K562 = tested on: K562
# NCI/ADR-RES = tested on: NCI/ADR-RES
# HCC 2998 = tested on: HCC 2998
# UO-31 = tested on: UO-31
# NCI-H522 = tested on: NCI-H522
# MDA-N = tested on: MDA-N
# NCI-H23 = tested on: NCI-H23
# SF-539 = tested on: SF-539
# SNB-75 = tested on: SNB-75
# OVCAR-4 = tested on: OVCAR-4
# EKVX = tested on: EKVX
# MDA-MB-435 = tested on: MDA-MB-435
# TK-10 = tested on: TK-10
# SN12C = tested on: SN12C
# RPMI-8226 = tested on: RPMI-8226
# HL-60 = tested on: HL-60
# U-251 = tested on: U-251
# HCT-15 = tested on: HCT-15
# SF-268 = tested on: SF-268
# HCT-116 = tested on: HCT-116
# NCI-H226 = tested on: NCI-H226
# UACC-257 = tested on: UACC-257
# IGROV-1 = tested on: IGROV-1
# HOP-92 = tested on: HOP-92
# Hs-578T = tested on: Hs-578T
# A549 = tested on: A549
# NCI-H460 = tested on: NCI-H460
# BT-549 = tested on: BT-549
# DU-145 = tested on: DU-145
# RXF 393 = tested on: RXF 393
# PC-3 = tested on: PC-3
# HOP-62 = tested on: HOP-62
# OVCAR-3 = tested on: OVCAR-3
# Malme-3M = tested on: Malme-3M
# SNB-19 = tested on: SNB-19
# CCRF-CEM = tested on: CCRF-CEM
# KM12 = tested on: KM12
# SW-620 = tested on: SW-620
# ACHN = tested on: ACHN
# HT-29 = tested on: HT-29
# SF-295 = tested on: SF-295
# COLO 205 = tested on: COLO 205
# SK-MEL-2 = tested on: SK-MEL-2
# OVCAR-5 = tested on: OVCAR-5
# SK-MEL-28 = tested on: SK-MEL-28
# CAKI-1 = tested on: CAKI-1
# LOX IMVI = tested on: LOX IMVI
# SR = tested on: SR
smiles,measurement,setting,value
O=C1C(Cl)=C(Cl)C(=O)C2=C1C1c3ccccc3C2c2ccccc21,GI50,SK-OV-3,94.4 µM (inactive)
same,GI50,A498,> 100 µM (inactive)
same,GI50,786-0,22.3 µM (inactive)
same,GI50,M14,62.7 µM (inactive)
same,GI50,SK-MEL-5,> 100 µM (inactive)
same,GI50,UACC-62,30.5 µM (inactive)
same,GI50,OVCAR-8,> 100 µM (inactive)
same,GI50,MDA-MB-231,31.1 µM (inactive)
same,GI50,T47D,25.3 µM (inactive)
same,GI50,MOLT-4,> 100 µM (inactive)
same,GI50,MCF7,71.4 µM (inactive)
same,GI50,K562,38.6 µM (inactive)
same,GI50,NCI/ADR-RES,94.8 µM (inactive)
same,GI50,HCC 2998,63.8 µM (inactive)
same,GI50,UO-31,47.6 µM (inactive)
same,GI50,NCI-H522,18.7 µM (inactive)
same,GI50,MDA-N,> 100 µM (inactive)
same,GI50,NCI-H23,46.3 µM (inactive)
same,GI50,SF-539,31.3 µM (inactive)
same,GI50,SNB-75,> 100 µM (inactive)
same,GI50,OVCAR-4,34.3 µM (inactive)
same,GI50,EKVX,> 100 µM (inactive)
same,GI50,MDA-MB-435,77.4 µM (inactive)
same,GI50,TK-10,83.9 µM (inactive)
same,GI50,SN12C,> 100 µM (inactive)
same,GI50,RPMI-8226,25.6 µM (inactive)
same,GI50,HL-60,26.2 µM (inactive)
same,GI50,U-251,20.9 µM (inactive)
same,GI50,HCT-15,39.3 µM
same,GI50,SF-268,> 100 µM (inactive)
same,GI50,HCT-116,55.3 µM (inactive)
same,GI50,NCI-H226,> 100 µM (inactive)
same,GI50,UACC-257,> 100 µM (inactive)
same,GI50,IGROV-1,> 100 µM (inactive)
same,GI50,HOP-92,19.5 µM (inactive)
same,GI50,Hs-578T,39.4 µM (inactive)
same,GI50,A549,99.1 µM (inactive)
same,GI50,NCI-H460,32.5 µM (inactive)
same,GI50,BT-549,14.8 µM (inactive)
same,GI50,DU-145,> 100 µM (inactive)
same,GI50,RXF 393,30.8 µM (inactive)
same,GI50,PC-3,> 100 µM (inactive)
same,GI50,HOP-62,28.9 µM (inactive)
same,GI50,OVCAR-3,36.1 µM (inactive)
same,GI50,Malme-3M,24 µM (inactive)
same,GI50,SNB-19,49.5 µM (inactive)
same,GI50,CCRF-CEM,59 µM (inactive)
same,GI50,KM12,59 µM (inactive)
same,GI50,SW-620,29.4 µM (inactive)
same,GI50,ACHN,43.2 µM (inactive)
same,GI50,HT-29,> 100 µM (inactive)
same,GI50,SF-295,41.5 µM (inactive)
same,GI50,COLO 205,24.2 µM (inactive)
same,GI50,SK-MEL-2,> 100 µM (inactive)
same,GI50,OVCAR-5,> 100 µM (inactive)
same,GI50,SK-MEL-28,38.7 µM (inactive)
Cc1[nH]n(-c2nc(O)c(C)c(=O)[nH]2)c(=O)c1CCO,GI50,SK-OV-3,> 100 µM (inactive)
same,GI50,A498,> 100 µM (inactive)
same,GI50,786-0,> 100 µM (inactive)
same,GI50,M14,> 100 µM (inactive)
same,GI50,SK-MEL-5,> 100 µM (inactive)
same,GI50,UACC-62,> 100 µM (inactive)
same,GI50,OVCAR-8,> 100 µM (inactive)
same,GI50,CAKI-1,> 100 µM (inactive)
same,GI50,MDA-MB-231,> 100 µM (inactive)
same,GI50,T47D,> 100 µM (inactive)
same,GI50,MOLT-4,> 100 µM (inactive)
same,GI50,MCF7,> 100 µM (inactive)
same,GI50,K562,> 100 µM (inactive)
same,GI50,UO-31,> 100 µM (inactive)
same,GI50,NCI-H522,> 100 µM (inactive)
same,GI50,MDA-N,> 100 µM (inactive)
same,GI50,NCI-H23,> 100 µM (inactive)
same,GI50,SF-539,> 100 µM (inactive)
same,GI50,SNB-75,45.6 µM (inactive)
same,GI50,OVCAR-4,> 100 µM (inactive)
same,GI50,EKVX,> 100 µM (inactive)
same,GI50,MDA-MB-435,> 100 µM (inactive)
same,GI50,TK-10,> 100 µM (inactive)
same,GI50,SN12C,> 100 µM (inactive)
same,GI50,RPMI-8226,> 100 µM (inactive)
same,GI50,HL-60,> 100 µM (inactive)
same,GI50,U-251,> 100 µM (inactive)
same,GI50,HCT-15,> 100 µM
same,GI50,SF-268,> 100 µM (inactive)
same,GI50,HCT-116,> 100 µM (inactive)
same,GI50,NCI-H226,> 100 µM (inactive)
same,GI50,UACC-257,> 100 µM (inactive)
same,GI50,IGROV-1,> 100 µM (inactive)
same,GI50,HOP-92,> 100 µM (inactive)
same,GI50,Hs-578T,> 100 µM (inactive)
same,GI50,A549,> 100 µM (inactive)
same,GI50,NCI-H460,> 100 µM (inactive)
same,GI50,BT-549,> 100 µM (inactive)
same,GI50,DU-145,> 100 µM (inactive)
same,GI50,RXF 393,22.6 µM (inactive)
same,GI50,PC-3,> 100 µM (inactive)
same,GI50,Malme-3M,> 100 µM (inactive)
same,GI50,SNB-19,> 100 µM (inactive)
same,GI50,CCRF-CEM,> 100 µM (inactive)
same,GI50,KM12,> 100 µM (inactive)
same,GI50,SW-620,> 100 µM (inactive)
same,GI50,ACHN,> 100 µM (inactive)
same,GI50,HT-29,> 100 µM (inactive)
same,GI50,SF-295,> 100 µM (inactive)
same,GI50,COLO 205,> 100 µM (inactive)
same,GI50,SK-MEL-2,> 100 µM (inactive)
same,GI50,OVCAR-5,> 100 µM (inactive)
same,GI50,SK-MEL-28,> 100 µM (inactive)
COC(=O)[C@](C)(Cc1ccccc1)NC(=O)[C@@H](C)N1[C@@H](c2ccccc2)COC1(C)C,GI50,SK-OV-3,> 100 µM (inactive)
same,GI50,A498,99.8 µM (inactive)
same,GI50,786-0,72.4 µM (inactive)
same,GI50,M14,63.7 µM (inactive)
same,GI50,SK-MEL-5,43.5 µM (inactive)
same,GI50,UACC-62,63.5 µM (inactive)
same,GI50,OVCAR-8,78.5 µM (inactive)
same,GI50,CAKI-1,82.2 µM (inactive)
same,GI50,MDA-MB-231,47 µM (inactive)
same,GI50,T47D,46.5 µM (inactive)
same,GI50,MOLT-4,34.4 µM (inactive)
same,GI50,MCF7,52 µM (inactive)
same,GI50,K562,48.1 µM (inactive)
same,GI50,NCI/ADR-RES,24.9 µM (inactive)
same,GI50,UO-31,30.6 µM (inactive)
same,GI50,NCI-H522,13.1 µM (inactive)
same,GI50,MDA-N,44.2 µM (inactive)
same,GI50,NCI-H23,51.9 µM (inactive)
same,GI50,SF-539,> 100 µM (inactive)
same,GI50,SNB-75,14.4 µM (inactive)
same,GI50,OVCAR-4,39.6 µM (inactive)
same,GI50,EKVX,57.9 µM (inactive)
same,GI50,MDA-MB-435,48.8 µM (inactive)
same,GI50,TK-10,> 100 µM (inactive)
same,GI50,LOX IMVI,77.6 µM (inactive)
same,GI50,RPMI-8226,39.5 µM (inactive)
same,GI50,HL-60,63.5 µM (inactive)
same,GI50,U-251,57.7 µM (inactive)
same,GI50,HCT-15,37.7 µM
same,GI50,SF-268,85.7 µM (inactive)
same,GI50,HCT-116,38.5 µM (inactive)
same,GI50,NCI-H226,56.2 µM (inactive)
same,GI50,UACC-257,53.7 µM (inactive)
same,GI50,IGROV-1,51.2 µM (inactive)
same,GI50,HOP-92,36 µM (inactive)
same,GI50,Hs-578T,24.5 µM (inactive)
same,GI50,A549,63.8 µM (inactive)
same,GI50,NCI-H460,31 µM (inactive)
same,GI50,BT-549,48.2 µM (inactive)
same,GI50,RXF 393,75.3 µM (inactive)
same,GI50,PC-3,29.1 µM (inactive)
same,GI50,HOP-62,> 100 µM (inactive)
same,GI50,OVCAR-3,37.6 µM (inactive)
same,GI50,Malme-3M,44.6 µM (inactive)
same,GI50,SNB-19,> 100 µM (inactive)
same,GI50,CCRF-CEM,89.7 µM (inactive)
same,GI50,KM12,22.2 µM (inactive)
same,GI50,SW-620,51.8 µM (inactive)
same,GI50,ACHN,36.7 µM (inactive)
same,GI50,HT-29,46.9 µM (inactive)
same,GI50,SF-295,53 µM (inactive)
same,GI50,COLO 205,20.1 µM (inactive)
same,GI50,SK-MEL-2,> 100 µM (inactive)
same,GI50,OVCAR-5,> 100 µM (inactive)
same,GI50,SR,27.5 µM (inactive)
same,GI50,SK-MEL-28,> 100 µM (inactive)
